According to ChEMBL document CHEMBL1150147, “Bioactive natural products from a sclerotium-colonizing isolate of Humicola fuscoatra” (2002):

Tested on: Aspergillus flavus
Assay: Antifungal activity against Aspergillus flavus at 200 ug/disk by disk assay
Type: functional
Details: read-out: IZ

## CC(=O)O[C@@H]1C[C@]2(C)C3=C(CC[C@H]2C(C)(C)[C@@H]1O[C@@H]1O[C@H](CO)[C@@H](O)[C@H](O)[C@H]1O)[C@@]1(C)CC[C@](C)([C@H](C)C(C)C)[C@@H](C(=O)O)[C@]1(C)CC3 [FUSCOATROSIDE]
  zone of inhibition at 200 µg/disc: 18 mm
